Data from PubChem BioAssay (NCI).
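Values below derive from 48-hour exposures of cells grown in 96-well plates, with endpoints linearly interpolated between the two concentrations bracketing the appropriate inhibition level. GI50: concentration for 50% inhibition of growth. TGI denotes the concentration required for complete inhibition of growth.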

Test system: OVCAR-4 ovarian
Assay: growth of human tumour cells (NCI), 48 h

Structure (SMILES) | TGI [µM] | GI50 [µM]
OC[C@H]1CCCC1O (stereo partly specified) | > 100 | 
Cc1cccc(N2CCN(C(=S)c3ccc4c(c3)OCO4)CC2)c1 | > 100 | 67.7
Cc1cc(C(=O)Nc2ncc(Cc3cccc(C(F)(F)F)c3)s2)c2ccccc2n1 | > 100 | 4.02
O=C(N/N=C/c1ccc(Cl)cc1)c1ccc(C(F)(F)F)nc1Nc1cccc(C(F)(F)F)c1 | 15.2 | 0.736
COc1cc2ncnc(Nc3ccc(C)c(O)c3)c2cc1OC | > 25 | 9.91
O=C1OC(C(O)CO)C(=O)C1=O (stereo unspecified) | > 10000 | 5580
COC(=O)C1=CNC=C(C(=O)OC)C1C1=CC(=O)C(C)=CC1=O | 61.7 | 20.7
C=C1C(=O)O[C@H]2[C@H]1CC/C(COC(=O)C(=O)c1cn(Cc3ccccc3)c3ccccc13)=C\CC[C@@]1(C)O[C@@H]21 | > 100 | 4.19
Cc1cc(S(=O)(=O)Nc2nnc(-c3ccccc3)c(-c3ccccc3)n2)c(SCC(N)=O)cc1Cl | > 100 | 41.5
COc1ccc(/C=C/c2ccnc3ccccc23)c(OC)c1 | > 10 | 
Cc1ccc(C(=O)CN(/C=C/C(=O)C(F)(F)F)c2ccc(S(N)(=O)=O)cc2)cc1 | > 100 | > 100
Clc1nc(Cl)c(Cl)c(-c2ccccc2)n1 | 20.6 | 
NS(=O)(=O)c1ccc(NC2(C(=O)O)CCCC2)cc1 | > 100 | 
N=C1C(c2nc3ccccc3s2)=C(O)CN1c1cc(C(F)(F)F)ccc1Cl | > 100 | > 100
CC(=O)CSCc1ccccn1 | > 100 | 
COc1ccccc1CNCCCN1C(=O)c2ccc3c4c(ccc(c24)C1=O)C(=O)N(CCCOCCCCOCCCN)C3=O | 0.54 | 0.193
CCOC(=O)[C@@H](N)CCC(=O)N[C@@H](CSCc1ccccc1)C(=O)N[C@@H](C(=O)OCC)c1ccccc1 | > 57.1 | 27.5
COc1ccc(Nc2c3ccccc3nc3occc23)cc1 | > 100 | 16.9
COc1cc(/C=C/c2cc(/C=C/c3ccc(O)c(OC)c3)n(C(=O)Nc3ccc(F)c(Cl)c3)n2)ccc1O | 5.47 | 0.721
CCCCCCCC/C=C/CCCCCCCC(=O)OC[C@H]1O[C@@H](n2ccc(N)nc2=O)C(F)(F)[C@@H]1O | > 100 | > 100
NS(=O)(=O)c1ccc(N=Nc2c(O)[nH]c3ccc(-c4cnco4)cc23)cc1 | > 25 | > 25
Clc1ccc(C2=Nn3c(COc4ccccc4Cl)nnc3SC2)c(Cl)c1 | > 100 | 26.9
COc1cc2c3c(n(CCCNC(=O)OCC4c5ccccc5-c5ccccc54)c(=O)c2cc1OC)-c1cc2c(cc1/C3=C\CCNC(=O)OCC1c3ccccc3-c3ccccc31)OCO2 | > 50 | > 50
N#C/C(=C1C=C(Br)/C(=N\O)C=C\1Cl)c1cccc2ccccc12 | 7.6 | 
COc1cc2nc3cc([N+](=O)[O-])ccc3c(NCCCNCCO)c2cc1OC | 0.385 | 0.114
COC(=O)[C@@H](C)CNS(=O)(=O)N(c1cc(C(F)(F)F)cc(C(F)(F)F)c1)C1CCN(Cc2ccc(F)cc2)CC1 | 24.7 | 11.9
C=C1C(=O)O[C@@H]2/C=C(\C)CC/C=C(/COC(C)=O)C[C@@H](OC(C)=O)[C@@H]12 | 45.1 | 
COC(=O)[C@H](C)NC(=O)NC(=O)NC(=O)CI | 24.4 | 11.6
CCOC(=O)c1c(C)n(Cc2ccc(Cl)cc2Cl)c2c1c(CN(C)C)c(O)c1[nH]cnc12 | 85.7 | 16.7
